Assay results reported in ChEMBL document CHEMBL1201862, “PubChem BioAssay data set” (2004).
The source made the active and inactive calls.

What was measured:
NS3 = NS3 (Hepatitis C virus, UniProt A3EZJ3); test: PubChem AID 2173; design: species or system Hepacivirus hominis
Vero = Vero cell cytotoxicity, cytotoxicity control for flavivirus capping enzyme inhibitors (AID 588742); assay type: functional; conditions: Chlorocebus sabaeus
DNA topoisomerase = biological target: T1, DNA topoisomerase (Yersinia pestis, UniProt A0A2S9PM60); test: Y. pestis Topo-I inhibitors, cleavage product readout, dose response, biochemical, cherry-pick (AID 588525)
T1 sequence (A0A2S9PM60 whole entry): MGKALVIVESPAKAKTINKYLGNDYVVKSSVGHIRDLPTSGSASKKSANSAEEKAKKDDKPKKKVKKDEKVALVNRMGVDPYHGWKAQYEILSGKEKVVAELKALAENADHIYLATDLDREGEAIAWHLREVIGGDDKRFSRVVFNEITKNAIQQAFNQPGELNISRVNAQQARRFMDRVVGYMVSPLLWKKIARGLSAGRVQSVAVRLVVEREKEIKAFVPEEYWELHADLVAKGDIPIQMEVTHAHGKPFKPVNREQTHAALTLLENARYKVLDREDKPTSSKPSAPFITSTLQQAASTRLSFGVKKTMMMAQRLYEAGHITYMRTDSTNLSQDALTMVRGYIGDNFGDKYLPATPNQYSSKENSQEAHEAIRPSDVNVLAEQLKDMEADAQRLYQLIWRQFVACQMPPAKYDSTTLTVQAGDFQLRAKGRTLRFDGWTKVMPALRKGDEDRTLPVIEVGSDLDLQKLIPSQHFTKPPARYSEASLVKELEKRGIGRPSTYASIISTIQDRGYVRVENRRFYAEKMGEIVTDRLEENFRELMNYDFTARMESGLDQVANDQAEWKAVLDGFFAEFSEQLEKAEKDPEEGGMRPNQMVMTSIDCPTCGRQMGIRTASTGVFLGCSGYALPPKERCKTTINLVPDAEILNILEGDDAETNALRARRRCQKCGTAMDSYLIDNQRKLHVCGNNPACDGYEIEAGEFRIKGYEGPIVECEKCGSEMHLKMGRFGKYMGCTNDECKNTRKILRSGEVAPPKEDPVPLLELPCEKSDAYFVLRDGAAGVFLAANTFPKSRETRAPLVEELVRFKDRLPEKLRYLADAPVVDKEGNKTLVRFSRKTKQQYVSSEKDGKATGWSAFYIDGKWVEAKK

Genome polyprotein = Genome polyprotein (dengue virus type 2, UniProt P29990); test: Dengue-2 NS5 methyltransferase inhibitors, primary screen, biochemical, confirmation dose response (AID 588689); assay type: functional
Chain of Genome polyprotein (P29990 2492-3391 limits assumed): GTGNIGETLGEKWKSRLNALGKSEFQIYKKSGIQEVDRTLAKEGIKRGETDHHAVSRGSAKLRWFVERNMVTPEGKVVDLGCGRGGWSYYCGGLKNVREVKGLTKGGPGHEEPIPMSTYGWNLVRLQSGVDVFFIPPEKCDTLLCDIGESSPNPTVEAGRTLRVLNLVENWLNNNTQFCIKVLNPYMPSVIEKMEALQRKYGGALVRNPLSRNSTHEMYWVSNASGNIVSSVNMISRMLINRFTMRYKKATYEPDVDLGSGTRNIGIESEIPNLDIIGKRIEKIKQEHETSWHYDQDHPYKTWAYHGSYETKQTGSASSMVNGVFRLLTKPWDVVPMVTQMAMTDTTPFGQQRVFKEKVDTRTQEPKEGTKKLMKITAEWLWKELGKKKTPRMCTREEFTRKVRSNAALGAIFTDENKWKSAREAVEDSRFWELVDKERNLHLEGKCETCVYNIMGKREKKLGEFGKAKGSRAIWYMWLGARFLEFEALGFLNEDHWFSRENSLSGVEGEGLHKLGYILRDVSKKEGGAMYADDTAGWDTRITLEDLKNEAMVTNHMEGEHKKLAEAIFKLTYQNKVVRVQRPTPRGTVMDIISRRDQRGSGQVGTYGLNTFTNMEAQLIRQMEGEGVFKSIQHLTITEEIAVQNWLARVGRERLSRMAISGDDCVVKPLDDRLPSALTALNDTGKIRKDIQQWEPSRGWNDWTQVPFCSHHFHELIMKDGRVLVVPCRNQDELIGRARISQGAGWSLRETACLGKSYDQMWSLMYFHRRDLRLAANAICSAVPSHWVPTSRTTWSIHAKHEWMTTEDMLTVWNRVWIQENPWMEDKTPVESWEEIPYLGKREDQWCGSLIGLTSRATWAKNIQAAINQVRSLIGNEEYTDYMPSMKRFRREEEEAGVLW

[1] = Late-stage probe development counterscreen for inhibitors of the Hepatitis C Virus non-structural protein 3 helicase (NS3): luminescence-based cell-based dose response assay to determine whether compounds that inhibit replication of HCV RNA replicon are cytotoxic. [Related pubchem assays (depositor defined):AID1800, AID1830, AID1845, AID1943, AID1945, AID2172, AID2173, AID2474, AID2476]; assay type: functional
[2] = biological target: T2, Low molecular weight phosphotyrosine protein phosphatase (Homo sapiens, UniProt P24666); assay type: functional; conditions: read-out: IC50_Mean
T2 sequence (P24666 whole entry): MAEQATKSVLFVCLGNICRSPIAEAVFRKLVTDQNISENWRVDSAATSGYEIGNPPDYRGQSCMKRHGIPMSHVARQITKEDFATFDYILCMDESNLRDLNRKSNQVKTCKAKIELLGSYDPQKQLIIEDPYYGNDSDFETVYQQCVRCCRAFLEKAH

[3] = biological target: T2, Low molecular weight phosphotyrosine protein phosphatase; assay type: functional; conditions: read-out: IC50_Mean; remark: listed apart in the source
[4] = cytotoxicity in HEK-293T NF-kB-Luc cells, dose response, cytotoxicity control for B/T-cell NF-kB inhibitor project, cell-based, uHTS hits (AID 489019); assay type: functional;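 also: IC50 reflects cytotoxicity as loss of cell viability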
A-375 [5] = test: A375 melanoma cell viability reduction, dose response, counter-screen for MITF modulator project, cherry-pick samples, set 2 (AID 540335); assay type: functional, cell-based; conditions: Homo sapiens
[6] = biological target: T3, Microphthalmia-associated transcription factor (Homo sapiens, UniProt O75030); test: TRPM1 promoter luciferase signal decrease, dose response, MITF inhibitor project, cell-based, SK-MEL-5, cherry-picked, set 3 (AID 493073); assay type: functional
T3 sequence (O75030 whole entry): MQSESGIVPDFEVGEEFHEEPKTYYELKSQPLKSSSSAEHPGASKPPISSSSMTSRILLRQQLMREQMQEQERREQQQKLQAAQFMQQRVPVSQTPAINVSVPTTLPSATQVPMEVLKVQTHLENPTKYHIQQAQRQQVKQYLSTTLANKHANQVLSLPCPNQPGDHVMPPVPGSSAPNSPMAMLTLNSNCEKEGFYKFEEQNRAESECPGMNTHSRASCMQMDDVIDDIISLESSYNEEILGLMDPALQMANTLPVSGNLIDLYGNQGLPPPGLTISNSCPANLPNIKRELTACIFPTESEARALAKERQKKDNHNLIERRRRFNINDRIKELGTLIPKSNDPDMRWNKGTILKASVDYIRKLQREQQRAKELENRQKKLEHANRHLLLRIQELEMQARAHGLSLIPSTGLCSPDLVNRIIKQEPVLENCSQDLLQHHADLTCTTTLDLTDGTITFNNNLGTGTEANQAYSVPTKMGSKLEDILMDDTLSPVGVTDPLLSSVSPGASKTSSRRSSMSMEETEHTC

[7] = control 3'UTR Renilla luciferase suppression, dose response, counter-screen for Shn3 inhibitor project, cell-based, Clone20-Shn3RL, cherry-picked (AID 624133); assay type: functional
[8] = biological target: Photoreceptor-specific nuclear receptor (Homo sapiens, UniProt Q9Y5X4); assay type: functional, cell-based;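 also: CHO-S cells with Gal4-NCOR and VP16-NR2E3 two-hybrid luciferase reporter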
Chain of Photoreceptor-specific nuclear receptor (Q9Y5X4 whole entry, the tested form may be a part): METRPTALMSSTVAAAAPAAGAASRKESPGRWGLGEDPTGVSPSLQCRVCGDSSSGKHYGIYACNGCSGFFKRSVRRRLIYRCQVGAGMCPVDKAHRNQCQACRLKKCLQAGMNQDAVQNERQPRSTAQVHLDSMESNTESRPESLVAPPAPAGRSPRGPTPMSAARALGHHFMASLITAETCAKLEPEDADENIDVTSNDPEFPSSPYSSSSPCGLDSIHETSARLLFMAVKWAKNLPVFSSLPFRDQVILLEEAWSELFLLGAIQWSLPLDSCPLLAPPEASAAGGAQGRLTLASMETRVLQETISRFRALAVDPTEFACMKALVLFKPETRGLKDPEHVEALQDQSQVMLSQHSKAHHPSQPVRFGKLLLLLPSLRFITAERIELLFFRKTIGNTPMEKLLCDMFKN

Jurkat = test: antigen receptor-induced NF-kB inhibitors, dose response, Jurkat, luciferase reporter, luminescence, B- and T-cell (AID 489004); assay type: functional, cell-based; conditions: Homo sapiens;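 also: NF-kB luciferase reporter Jurkat cells stimulated with PMA plus ionomycin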
[9] = Shn3 3'UTR reporter inhibitors, dose response, cell-based, Clone20 osteoblasts, firefly luciferase, cherry-picked (AID 624132); assay type: functional;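 also: firefly luciferase luminescence from reporter carrying the Shn3 3'UTR in osteoblasts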
A-375 [10] = test: MITF: Counter assay: A375 proliferation Measured in Cell-Based System Using Plate Reader - 2084-03_Inhibitor_Dose_DryPowder_Activity. [Related pubchem assays (depositor defined):AID488944]; assay type: functional; conditions: Homo sapiens
Candida albicans [11] = test: growth inhibition of azole-resistant C. albicans, dose response, CaCi-8 strain, Alamar Blue, dry powder, set 2 (AID 488909); assay type: functional, organism-based
Candida albicans [12] = test: fluconazole resistance reversal in C. albicans, dose response, CaCi-2 strain, Alamar Blue, dry powder, set 4 (AID 488943); assay type: functional, organism-based
Candida albicans [13] = test: growth inhibition of resistant C. albicans, dose response, CaCi-8 strain, fluconazole, dry powder, set 4 (AID 488950); assay type: functional, organism-based
Candida albicans [14] = test: C. albicans growth inhibition with fluconazole, dose response, antifungal resistance reversal project, CaCi-2 strain, Alamar Blue, dry powder, set 2 (AID 488930); assay type: functional, organism-based
Escherichia coli [15] = test: microbe, parasite or virus in culture
Escherichia coli [16] = test: microbe, parasite or virus in culture; remark: listed apart in the source
[17] = biological target: T4, Calpain-2 catalytic subunit (Sus scrofa, UniProt P43367); test: pig calpain II inhibitor potency, dose response, biochemical, fluorogenic peptide substrate (AID 1420); assay type: functional
T4 sequence (P43367 whole entry): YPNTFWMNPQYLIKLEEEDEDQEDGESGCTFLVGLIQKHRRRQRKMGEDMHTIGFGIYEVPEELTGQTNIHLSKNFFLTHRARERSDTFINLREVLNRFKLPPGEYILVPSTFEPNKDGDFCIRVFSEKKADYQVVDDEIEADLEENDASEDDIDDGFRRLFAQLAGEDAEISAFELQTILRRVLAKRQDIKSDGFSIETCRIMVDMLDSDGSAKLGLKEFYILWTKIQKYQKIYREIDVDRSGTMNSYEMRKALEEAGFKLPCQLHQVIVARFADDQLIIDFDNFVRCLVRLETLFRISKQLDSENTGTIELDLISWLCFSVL

Chain of NS3 (A3EZJ3 whole entry): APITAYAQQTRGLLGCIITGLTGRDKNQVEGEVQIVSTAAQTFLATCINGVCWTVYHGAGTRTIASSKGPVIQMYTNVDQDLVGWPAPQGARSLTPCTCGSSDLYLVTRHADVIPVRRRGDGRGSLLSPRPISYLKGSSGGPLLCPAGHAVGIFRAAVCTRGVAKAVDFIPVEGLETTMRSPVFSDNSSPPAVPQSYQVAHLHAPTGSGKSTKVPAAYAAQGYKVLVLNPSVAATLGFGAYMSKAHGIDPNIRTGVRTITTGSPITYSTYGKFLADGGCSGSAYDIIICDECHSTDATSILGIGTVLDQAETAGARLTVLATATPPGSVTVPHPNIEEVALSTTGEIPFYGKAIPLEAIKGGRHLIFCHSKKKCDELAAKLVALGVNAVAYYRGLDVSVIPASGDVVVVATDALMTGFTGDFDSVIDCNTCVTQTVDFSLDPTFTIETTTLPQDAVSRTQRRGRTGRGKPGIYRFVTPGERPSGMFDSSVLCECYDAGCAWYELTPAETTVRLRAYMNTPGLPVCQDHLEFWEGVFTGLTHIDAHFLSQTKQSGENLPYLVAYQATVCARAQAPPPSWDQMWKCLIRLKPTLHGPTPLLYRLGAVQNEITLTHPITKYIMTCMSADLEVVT

Structure (SMILES): CCCCCOc1ccc(C2C(C(=O)c3ccc(C)o3)=C(O)C(=O)N2c2cc(C)on2)cc1 (configuration not stated)
- IC50 (NS3): 2.44 µM (active)
- CC50 (Vero): > 40 µM (active)
- AC50 (DNA topoisomerase): 6.14 µM (active)
- IC50 (Genome polyprotein): 31.6 µM (active)
- CC50 [1]: > 100 µM (inactive)
- IC50 [2]: 2.21 µM (active)
- IC50 [3]: > 80 µM (inactive)

Structure (SMILES): C=CCn1c(C)cc(C(=O)CN2C(=O)c3ccccc3S2(=O)=O)c1C
- IC50 [4]: > 80 µM (inactive)
- AC50 (A-375 [5]): > 35 µM (active)
- AC50 [6]: 0.666 µM (active)
- AC50 [7]: 23.2 µM (active)
- IC50 [8]: 2.46 µM (active)
- IC50 (Jurkat): 1.17 µM (active)
- AC50 [9]: 0.974 µM (active)
- AC50 (A-375 [10]): > 35 µM (active)

Structure (SMILES): O=C(c1ccc(Cl)nc1)N1CCN(c2ccnc3cc(Cl)ccc23)CC1
- AC50 (Candida albicans [11]): < 0.195 µM (active)
- AC50 (Candida albicans [12]): 3.16 µM (active)
- AC50 (Candida albicans [13]): 7.3 µM (active)
- AC50 (Candida albicans [14]): 2.99 µM (active)

Structure (SMILES): O=C(CCC(=O)OCc1cccc(C(=O)Oc2ccccc2)c1)Nc1cccc2ccccc12
- AC50 (Escherichia coli [15]): 23.5 µM (active)
- AC50 (Escherichia coli [16]): 212 µM (active)
- IC50 [17]: < 0.4 µM (not active)
